Reference: patent US20230201232A1, “COMPOSITION FOR AMELIORATION, PREVENTION OR TREATMENT OF HAIR LOSS, COMPRISING CATECHIN 7-O-beta-D-APIOFURANOSIDE AS ACTIVE INGREDIENT” (ANPOLY INC., priority 2020, published 2023)

Columns and labels:
IGF-1 = assay: ELISA, IGF-1 expression in H2O2-treated dermal papilla cells; format: cell-based, human; conditions: FIG. 5A
Method: (§1) HFDPC cells were inoculated in a papilla cell-specific medium (PromoCell, Heidelberg, Germany or Cell biologics Inc, IL, USA) recommended by the supplier, subcultured for 24 to 48 hours at 37° C. and 5% CO2 conditions, and used for experiments.
(§2) An ELISA kit was purchased and used to perform immunochemical quantitative analysis related to hair growth promotion and hair loss inhibition. TGF-β and IGF-1 kits were purchased from R&D systems (CA, USA) and used. The test was conducted using each kit according to the supplier’s manual, and the result was derived by converting the amount (pg or µg) of antigen per volume (ml) of cell lysate into a concentration unit.

[1] = system: production of dihydrotestosterone (DHT) from testosterone in dermal papilla cells (HFDPC); assay: Dihydrotestosterone production inhibitory activity assay (DHT ELISA); format: cell-based, human; conditions: HFDPC treated with 20 nM testosterone; compound at 125 µg/ml, 150 µg/ml, 1100 µg/ml; FIG. 3
Method: as §1
Quantitative analysis of dihydrotestosterone (DHT) was performed by immunochemical quantitative analysis using an ELISA kit. A DHT assay ELISA kit was purchased from Alpco (NH, USA) and used. The experiment using the kit was performed according to the instructions provided by the manufacturer, and the result was derived by converting the amount of antigen (pg/µg) per volume (ml) of cell lysate into a concentration unit.

PARP-1 = assay: Western blot, PARP-1 protein expression in H2O2-treated dermal papilla cells; format: cell-based, human; conditions: HFDPC, 600 µM H2O2, compound at each concentration; FIG. 4
Method: as §1
(§3) After treating the dermal papilla cells (HFDPC) with H2O2 and the sample, the cells were collected at each time zone and the cells were lysed in a cell lysis buffer (RIPA buffer). After the sample was centrifuged at 13,000 g for about 10 to 15 minutes, only the supernatant was taken. The protein concentration of the supernatant was measured by a BCA protein assay kit (Bio-Rad, CA, USA) and then heated at 95° C. for 10 minutes. The prepared sample was electrophoresed on SDS-polyacrylamide gel, transferred to a polyvinylidenedifluoride membrane (PVDF, Bio-rad, CA, USA), blocked with 5% BSA, and reacted with the indicated specific antibody. Then, HRP-conjugated secondary antibody (Santacruz, CA, USA) was reacted with the sample and detected by ECL system (Bio-Rad, MO, USA). As primary antibodies against Bax-1, Bcl-2, PARP-1, and β-actin, Santacruz antibodies (CA, USA) were used.

Bcl-2 = assay: Western blot, Bcl-2 protein expression in H2O2-treated dermal papilla cells; format: cell-based, human; conditions: HFDPC, 600 µM H2O2, compound at each concentration; FIG. 4
Method: as §1, §3

TGF-β1 = assay: ELISA, TGF-β1 expression in H2O2-treated dermal papilla cells; format: cell-based, human; conditions: FIG. 5B
Method: as §1, §2

Bax = assay: Western blot, Bax protein expression in H2O2-treated dermal papilla cells; format: cell-based, human; conditions: HFDPC, 600 µM H2O2, pretreatment with compound at each concentration; FIG. 4
Method: as §1, §3

[2] = system: dermal papilla cells (HFDPC); conditions: H2O2 at 600 µM

SMILES: OC[C@@]1(O)COC(Oc2cc(O)c3c(c2)O[C@H](c2ccc(O)c(O)c2)[C@@H](O)C3)[C@@H]1O (stereo in doubt) [catechin 7-O-β-D-apiofuranoside]
- expression of IGF-1 (IGF-1): promote the expression of IGF conducive to hair growth in a concentration-dependent manner
- inhibition of DHT production [1]: effect of inhibiting DHT production was statistically significant in a concentration-dependent manner
- protein expression level of PARP-1 (PARP-1): significantly inhibited the protein expression level of PARP-1 in a concentration-dependent manner
- expression of Bcl-2 (Bcl-2): significantly increased the expression of Bcl-2 in a concentration-dependent manner
- expression of TGF-β1 (TGF-β1): inhibit the expression of TGF-β1 in a concentration-dependent manner
- expression of Bax (Bax): expression of Bax was significantly reduced in a concentration-dependent manner

SMILES: OO [Hydrogen peroxide (H2O2), Hydrogen peroxide]
- apoptosis [2]: 50%
